Measurements taken from patent publication US12077503B2, “Substituted cyclic amides and their use as herbicides” (FMC CORPORATION, priority 2015, dated 2024).

Assays:
Format in all cases: in vivo
[1] = system: ragweed (common ragweed, Ambrosia elatior); assay: Test A preemergence; details: for Plant response rating, Ragweed: 125 g ai/ha; for Ragweed plant response rating (0 to 100 scale, 0 is no effect, 100 is complete control): visual injury approx. 10 d
Method in brief: (§1)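 Seeds sprayed preemergence with a directed soil spray, or plants at 2 to 10 cm height and one- to two-leaf stage sprayed postemergence, with test chemicals in a non-phytotoxic solvent mixture containing surfactant, in loam soil–sand blend. Injury rated visually against untreated controls after about 10 d in greenhouse, 0 (no effect) to 100 (complete control).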

[2] = system: ryegrass, Italian (Italian ryegrass, Lolium multiflorum); assay: Test A preemergence; details: for Plant response rating, Ryegrass, Italian: 125 g ai/ha; for Ryegrass, Italian plant response rating (0 to 100 scale, 0 is no effect, 100 is complete control): visual injury approx. 10 d
Method in brief: as §1

[3] = system: Kochia (Kochia scoparia); assay: Test A preemergence; details: for Plant response rating, Kochia: 125 g ai/ha; for Kochia plant response rating (0 to 100 scale, 0 is no effect, 100 is complete control): visual injury approx. 10 d
Method in brief: as §1

[4] = system: pigweed (Amaranthus retroflexus); assay: Test A preemergence; details: for Plant response rating, Pigweed: 125 g ai/ha; for Pigweed plant response rating (0 to 100 scale, 0 is no effect, 100 is complete control): visual injury approx. 10 d
[5] = system: giant foxtail (Setaria faberii); assay: Test A preemergence; details: for Plant response rating, Foxtail, Giant: 125 g ai/ha; for Foxtail, Giant plant response rating (0 to 100 scale, 0 is no effect, 100 is complete control): visual injury approx. 10 d
Method in brief: as §1

[6] = system: barnyardgrass (Echinochloa crus-galli); assay: Test A preemergence; details: for Plant response rating, Barnyardgrass: 125 g ai/ha; for Barnyardgrass plant response rating (0 to 100 scale, 0 is no effect, 100 is complete control): visual injury approx. 10 d
Method in brief: as §1

[7] = system: ragweed (common ragweed, Ambrosia elatior); assay: Test A postemergence
Method in brief: as §1

[8] = system: blackgrass (Alopecurus myosuroides); assay: Test A postemergence
Method in brief: as §1

[9] = system: Galium (catchweed bedstraw, Galium aparine); assay: Test A postemergence
Method in brief: as §1

[10] = system: ryegrass, Italian (Italian ryegrass, Lolium multiflorum); assay: Test A postemergence
Method in brief: as §1

[11] = system: Kochia (Kochia scoparia); assay: Test A postemergence
Method in brief: as §1

[12] = system: pigweed (Amaranthus retroflexus); assay: Test A postemergence
Method in brief: as §1

[13] = system: giant foxtail (Setaria faberii); assay: Test A postemergence
Method in brief: as §1

[14] = system: barnyardgrass (Echinochloa crus-galli); assay: Test A postemergence
Method in brief: as §1

[15] = system: corn (Zea mays); assay: Test A postemergence
Method in brief: as §1

[16] = system: wheat (Triticum aestivum); assay: Test A postemergence
Method in brief: as §1

[17] = system: sedge, umbrella (small-flower umbrella sedge, Cyperus difformis); assay: Test B flooded paddy test; details: Flood, 250 g ai/ha; 0 to 100 scale where 0 is no effect and 100 is complete control; 13 to 15 d
Method in brief: (§2)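 Plants at 2-leaf stage flooded to 3 cm above soil, with compounds applied directly to paddy water and that depth maintained. Plants kept in greenhouse 13–15 d. Visual rating versus controls on a 0 (no effect) to 100 (complete control) scale.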

[18] = system: barnyardgrass (Echinochloa crus-galli); assay: Test B flooded paddy test; details: Flood, 250 g ai/ha; 0 to 100 scale where 0 is no effect and 100 is complete control; 13 to 15 d
Method in brief: as §2

[19] = system: rice (Oryra sativa); assay: Test B flooded paddy test; details: Flood, 250 g ai/ha; 0 to 100 scale where 0 is no effect and 100 is complete control; 13 to 15 d
Method in brief: as §2

[20] = system: ducksalad (Heteranthera limosa); assay: Test B flooded paddy test; details: Flood, 250 g ai/ha; 0 to 100 scale where 0 is no effect and 100 is complete control; 13 to 15 d
Method in brief: as §2

[21] = Preemergence, visual injury after approximately 10 d, 0 to 100 scale where 0 is no effect and 100 is complete control
[22] = 125 g ai/ha, postemergence, visual rating after approx. 10 d, 0 to 100 scale (0 no effect, 100 complete control)
[23] = Postemergence, 500 g ai/ha, 0 to 100 scale where 0 is no effect and 100 is complete control
[24] = preemergence, 0 to 100 scale (0 no effect, 100 complete control)
[25] = Preemergence, 500 g ai/ha, 0 is no effect, 100 is complete control
[26] = 500 g ai/ha, postemergence, 0 to 100 scale, 0 no effect, 100 complete control
[27] = Postemergence, 125 g ai/ha, visual injury, 0 to 100 scale (0 no effect, 100 complete control), approx. 10 d
[28] = 125 g ai/ha, postemergence, visual injury rating on 0 to 100 scale (0 no effect, 100 complete control), approx. 10 d

## O=C1NCC(c2ccsc2Br)C1C(=O)Nc1ccccc1F (stereo not drawn) [Compound 597]
[1]; [21]
  Plant response rating, Ragweed: 0
[1]; Preemergence, 500 g ai/ha
  Ragweed plant response rating (0 to 100 scale, 0 is no effect, 100 is complete control): 0
[2]; [21]
  Plant response rating, Ryegrass, Italian: 0
[2]; Preemergence, 500 g ai/ha
  Ryegrass, Italian plant response rating (0 to 100 scale, 0 is no effect, 100 is complete control): 0
[3]; [21]
  Plant response rating, Kochia: 0
[3]; Preemergence, 500 g ai/ha
  Kochia plant response rating (0 to 100 scale, 0 is no effect, 100 is complete control): 20
[4]; [21]
  Plant response rating, Pigweed: 0
[4]; Preemergence, 500 g ai/ha
  Pigweed plant response rating (0 to 100 scale, 0 is no effect, 100 is complete control): 0
[5]; [21]
  Plant response rating, Foxtail, Giant: 20
[5]; Preemergence, 500 g ai/ha
  Foxtail, Giant plant response rating (0 to 100 scale, 0 is no effect, 100 is complete control): 80
[6]; [21]
  Plant response rating, Barnyardgrass: 20
[6]; Preemergence, 500 g ai/ha
  Barnyardgrass plant response rating (0 to 100 scale, 0 is no effect, 100 is complete control): 70
[7]; [22]
  Plant response rating, Ragweed: 0
[7]; [23]
  Plant response rating, Ragweed: 0
[8]; [22]
  Plant response rating, Blackgrass: 0
[8]; [23]
  Plant response rating, Blackgrass: 20
[9]; [22]
  Plant response rating, Galium: 0
[9]; [23]
  Plant response rating, Galium: 20
[10]; [22]
  Plant response rating, Ryegrass, Italian: 0
[10]; [23]
  Plant response rating, Ryegrass, Italian: 0
[11]; [22]
  Plant response rating, Kochia: 0
[11]; [23]
  Plant response rating, Kochia: 0
[12]; [22]
  Plant response rating, Pigweed: 0
[12]; [23]
  Plant response rating, Pigweed: 0
[13]; [22]
  Plant response rating, Foxtail, Giant: 0
[13]; [23]
  Plant response rating, Foxtail, Giant: 30
[14]; [22]
  Plant response rating, Barnyardgrass: 0
[14]; [23]
  Plant response rating, Barnyardgrass: 30
[15]; [22]
  Plant response rating, Corn: 0
[15]; [23]
  Plant response rating, Corn: 20
[16]; [22]
  Plant response rating, Wheat: 0
[16]; [23]
  Plant response rating, Wheat: 20
[17]
  Plant response rating, Sedge, Umbrella: 0
[18]
  Plant response rating, Barnyardgrass: 0
[19]
  Plant response rating, Rice: 0
[20]
  Plant response rating, Ducksalad: 50

## CC(C)Oc1cccc(C2CNC(=O)C2C(=O)Nc2ccc(F)cc2F)c1 (racemic) [Compound 377]
[1]; [24]
  Plant response rating, Ragweed: 0
[1]; [25]
  Ragweed plant response rating (0 to 100 scale): 0
[2]; [24]
  Plant response rating, Ryegrass, Italian: 20
[2]; [25]
  Ryegrass, Italian plant response rating (0 to 100 scale): 60
[3]; [24]
  Plant response rating, Kochia: 50
[3]; [25]
  Kochia plant response rating (0 to 100 scale): 80
[4]; [24]
  Plant response rating, Pigweed: 50
[4]; [25]
  Pigweed plant response rating (0 to 100 scale): 70
[5]; [24]
  Plant response rating, Foxtail, Giant: 90
[5]; [25]
  Foxtail, Giant plant response rating (0 to 100 scale): 90
[6]; [24]
  Plant response rating, Barnyardgrass: 90
[6]; [25]
  Barnyardgrass plant response rating (0 to 100 scale): 90
[7]; [26]
  Plant response rating, Ragweed: 60
[7]; [27]
  Plant response rating, Ragweed: 40
[8]; [26]
  Plant response rating, Blackgrass: 70
[8]; [27]
  Plant response rating, Blackgrass: 50
[9]; [26]
  Plant response rating, Galium: 70
[9]; [27]
  Plant response rating, Galium: 60
[10]; [26]
  Plant response rating, Ryegrass, Italian: 50
[10]; [27]
  Plant response rating, Ryegrass, Italian: 30
[11]; [26]
  Plant response rating, Kochia: 60
[11]; [27]
  Plant response rating, Kochia: 30
[12]; [26]
  Plant response rating, Pigweed: 30
[12]; [27]
  Plant response rating, Pigweed: 0
[13]; [26]
  Plant response rating, Foxtail, Giant: 80
[13]; [27]
  Plant response rating, Foxtail, Giant: 80
[14]; [26]
  Plant response rating, Barnyardgrass: 90
[14]; [27]
  Plant response rating, Barnyardgrass: 90
[15]; [26]
  Plant response rating, Corn: 50
[15]; [27]
  Plant response rating, Corn: 0
[16]; [26]
  Plant response rating, Wheat: 50
[16]; [27]
  Plant response rating, Wheat: 0
[17]
  Plant response rating, Sedge, Umbrella: 0
[18]
  Plant response rating, Barnyardgrass: 60
[19]
  Plant response rating, Rice: 25
[20]
  Plant response rating, Ducksalad: 100

## Cc1ccc(C2CNC(=O)C2C(=O)Nc2ccccc2F)c(F)c1 (racemic) [Compound 509]
[1]; [21]
  Plant response rating, Ragweed: 0
[1]; Preemergence, 500 g ai/ha
  Ragweed plant response rating (0 to 100 scale, 0 is no effect, 100 is complete control): 0
[2]; [21]
  Plant response rating, Ryegrass, Italian: 0
[2]; Preemergence, 500 g ai/ha
  Ryegrass, Italian plant response rating (0 to 100 scale, 0 is no effect, 100 is complete control): 0
[3]; [21]
  Plant response rating, Kochia: 0
[3]; Preemergence, 500 g ai/ha
  Kochia plant response rating (0 to 100 scale, 0 is no effect, 100 is complete control): 0
[4]; [21]
  Plant response rating, Pigweed: 0
[4]; Preemergence, 500 g ai/ha
  Pigweed plant response rating (0 to 100 scale, 0 is no effect, 100 is complete control): 0
[5]; [21]
  Plant response rating, Foxtail, Giant: 40
[5]; Preemergence, 500 g ai/ha
  Foxtail, Giant plant response rating (0 to 100 scale, 0 is no effect, 100 is complete control): 70
[6]; [21]
  Plant response rating, Barnyardgrass: 60
[6]; Preemergence, 500 g ai/ha
  Barnyardgrass plant response rating (0 to 100 scale, 0 is no effect, 100 is complete control): 90
[7]; [28]
  Ragweed plant response rating: 0
[7]; [23]
  Plant response rating, Ragweed: 0
[8]; [28]
  Blackgrass plant response rating: 0
[8]; [23]
  Plant response rating, Blackgrass: 20
[9]; [28]
  Galium plant response rating: 0
[9]; [23]
  Plant response rating, Galium: 40
[10]; [28]
  Ryegrass, Italian plant response rating: 0
[10]; [23]
  Plant response rating, Ryegrass, Italian: 0
[11]; [28]
  Kochia plant response rating: 0
[11]; [23]
  Plant response rating, Kochia: 20
[12]; [28]
  Pigweed plant response rating: 0
[12]; [23]
  Plant response rating, Pigweed: 0
[13]; [28]
  Foxtail, Giant plant response rating: 0
[13]; [23]
  Plant response rating, Foxtail, Giant: 40
[14]; [28]
  Barnyardgrass plant response rating: 60
[14]; [23]
  Plant response rating, Barnyardgrass: 90
[15]; [28]
  Corn plant response rating: 0
[15]; [23]
  Plant response rating, Corn: 0
[16]; [28]
  Wheat plant response rating: 0
[16]; [23]
  Plant response rating, Wheat: 0
[17]
  Plant response rating, Sedge, Umbrella: 0
[18]
  Plant response rating, Barnyardgrass: 0
[19]
  Plant response rating, Rice: 0
[20]
  Plant response rating, Ducksalad: 50
